According to patent US11779529B2, “Personal care composition” (Colgate-Palmolive Company, priority 2017, dated 2023):

Tested on: Collagen I
Test: Collagen I release from human dermal fibroblast cells, COL1A1 ELISA of supernatants
Type: cell-based
Details: 1 mL composition, 24 hours, 37° C., 5% CO2, average of 3 tests
Protocol: Each of the compositions of Table 3 was tested on human dermal fibroblast cells (Thermo Fisher Scientific, Gaithersburg, Md.) as follows: human dermal fibroblast cells were seeded in 6-well plates and grow until about 80% confluency. 1 mL of each composition was added to the wells in triplicate per composition. The cells were then incubated at 37° C., 5% CO2 for 24 hours and the supernatants were collected and analyzed for Collagen I release. Collagen I release in the supernatants was measured using COL1A1 ELISA kit (MyBioSource, San Diego, Calif.). The data in Table 3 represents the average value for 3 tests.

In the case of `NCCS(=O)(=O)O` [Solvent + 0.001% Taurine, Taurine], the “Collagen I” value is reported as 1.9 ng/mL.
